Measurements published in ChEMBL document CHEMBL5046286, “Discovery of MAP855, an Efficacious and Selective MEK1/2 Inhibitor with an ATP-Competitive Mode of Action” (J Med Chem, 2022).
≈ marks a conversion by molar mass, not a printed value. Calls of active or inactive are those of the source. The calls are words filed in the database; no cut-off is given here.

Experiments:
[1] = Permeability in PBS at pH 6.8 incubated for 5 hrs by PAMPA method; type: ADME; details: pH 6.8, 5 h
[2] = Solubility of compound in water at pH 6.8 by shake flask method based HPLC/UV analysis; type: physicochemical
[3] = Dissociation constant, pKa of compound; type: physicochemical
[4] = Octanol-water partition coefficient, logP of the compound by LC-MS analysis; type: physicochemical
[5] = molecular target: Cytochrome P450 3A4 (Homo sapiens, UniProt P08684); assay: Inhibition of CYP3A4 (unknown origin); type: ADME
Cytochrome P450 3A4, sequence (P08684 whole entry): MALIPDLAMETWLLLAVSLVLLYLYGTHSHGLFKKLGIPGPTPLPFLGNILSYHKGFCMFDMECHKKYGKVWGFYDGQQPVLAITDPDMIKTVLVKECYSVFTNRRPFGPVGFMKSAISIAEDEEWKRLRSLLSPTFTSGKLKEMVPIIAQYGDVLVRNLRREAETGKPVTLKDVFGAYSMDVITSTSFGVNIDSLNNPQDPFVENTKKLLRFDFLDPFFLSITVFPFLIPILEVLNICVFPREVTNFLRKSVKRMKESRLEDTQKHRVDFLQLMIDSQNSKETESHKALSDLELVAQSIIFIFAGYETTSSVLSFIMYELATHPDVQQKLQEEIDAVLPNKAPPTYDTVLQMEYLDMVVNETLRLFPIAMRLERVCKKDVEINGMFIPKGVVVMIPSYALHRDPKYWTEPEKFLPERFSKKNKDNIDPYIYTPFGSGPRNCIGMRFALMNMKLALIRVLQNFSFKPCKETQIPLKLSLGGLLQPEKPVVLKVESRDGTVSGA

[6] = Inhibition of ERK phosphorylation in human A-375 cells incubated for 3 hrs by DELFIA assay; type: cell-based; details: A-375, 3 h
[7] = Oral bioavailability in Wistar rat at 10 mg/kg measured up to 24 hrs by LC-MS/MS analysis; type: ADME, organism-based; details: in vivo; for bioavailability: Wistar
[8] = Clearance in Wistar rat at 3 mg/kg, iv measured up to 24 hrs by LC-MS/MS analysis; type: ADME, organism-based; details: in vivo
[9] = system: A-375; assay: Antitumor activity against human A-375 cells xenografted in CD1 mouse assessed as tumor growth inhibition at 30 mg/kg bid via oral gavage; type: functional; details: A-375, po, read-out: TGI
[10] = Protein binding in human plasma assessed as free fraction; type: ADME, cell-free
[11] = Solubility of compound in FaSSIF at pH 6.8 by shake flask method based HPLC/UV analysis; type: physicochemical
[12] = molecular target: T1, Dual specificity mitogen-activated protein kinase kinase 1 (Homo sapiens, UniProt Q02750); assay: Inhibition of full-length human MEK1 by TR-FRET assay
T1 sequence (Q02750 whole entry): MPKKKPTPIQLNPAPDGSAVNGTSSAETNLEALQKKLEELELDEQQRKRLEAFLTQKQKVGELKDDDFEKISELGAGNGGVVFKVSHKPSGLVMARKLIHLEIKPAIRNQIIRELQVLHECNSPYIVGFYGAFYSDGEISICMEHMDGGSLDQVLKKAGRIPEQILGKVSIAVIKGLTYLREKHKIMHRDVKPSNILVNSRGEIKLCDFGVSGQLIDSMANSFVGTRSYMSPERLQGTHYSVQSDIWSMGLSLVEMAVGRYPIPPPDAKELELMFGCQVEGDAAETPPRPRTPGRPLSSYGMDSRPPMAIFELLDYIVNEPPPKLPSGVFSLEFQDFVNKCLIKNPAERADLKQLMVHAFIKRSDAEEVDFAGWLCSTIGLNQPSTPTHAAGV

[13] = Clearence in CD-1 mouse at 3 mg/kg, iv; type: ADME, organism-based; details: in vivo
[14] = molecular target: T1, Dual specificity mitogen-activated protein kinase kinase 1; details: time 120.0 min
[15] = Toxicity in CD1 mouse xenografted with human A-375 cells assessed as body weight loss at 30 mg/kg bid via oral gavage; type: organism-based; details: in vivo
[16] = system: Mus musculus; assay: In vivo inhibition of DUSP6 in human A-375 cells xenografted CD1 mouse at 30 mg/kg bid via oral gavage measured after 8 hrs by RT-PCR method; type: functional, organism-based
[17] = molecular target: High affinity nerve growth factor receptor (Homo sapiens, UniProt P04629); assay: Inhibition of wild-type human partial length TRKA (G475 to G790 residues) expressed in mammalian expression system by Kinomescan method
High affinity nerve growth factor receptor, sequence (P04629 whole entry, the tested form may be a part): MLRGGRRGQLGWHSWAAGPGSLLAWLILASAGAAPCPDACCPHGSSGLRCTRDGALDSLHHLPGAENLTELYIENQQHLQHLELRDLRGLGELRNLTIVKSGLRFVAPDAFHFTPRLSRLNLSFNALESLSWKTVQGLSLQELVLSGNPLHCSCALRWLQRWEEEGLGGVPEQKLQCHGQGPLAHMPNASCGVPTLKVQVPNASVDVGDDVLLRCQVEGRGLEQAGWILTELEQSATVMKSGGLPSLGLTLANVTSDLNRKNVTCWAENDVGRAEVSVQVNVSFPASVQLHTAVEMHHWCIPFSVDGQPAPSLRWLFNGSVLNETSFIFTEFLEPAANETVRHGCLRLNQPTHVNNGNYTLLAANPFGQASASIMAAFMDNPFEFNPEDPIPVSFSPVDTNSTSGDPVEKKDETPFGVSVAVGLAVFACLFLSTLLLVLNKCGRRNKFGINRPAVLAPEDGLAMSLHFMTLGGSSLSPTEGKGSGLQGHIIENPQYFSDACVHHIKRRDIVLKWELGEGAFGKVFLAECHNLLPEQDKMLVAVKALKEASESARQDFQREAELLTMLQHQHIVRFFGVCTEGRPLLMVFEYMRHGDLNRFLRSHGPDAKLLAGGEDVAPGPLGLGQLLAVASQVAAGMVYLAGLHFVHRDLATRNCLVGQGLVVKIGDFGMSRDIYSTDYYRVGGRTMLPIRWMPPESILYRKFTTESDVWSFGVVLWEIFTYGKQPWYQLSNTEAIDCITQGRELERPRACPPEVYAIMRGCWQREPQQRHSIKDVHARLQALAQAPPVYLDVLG

[18] = AUC in CD1 mouse at 10 mg/kg, po measured up to 24 hrs by LC-MS/MS analysis; type: ADME, organism-based; design: route oral, dose 10 mg/kg, time <=24; details: in vivo
[19] = Volume of distribution at steady state in CD1 mouse at 3 mg/kg, iv measured up to 24 hrs by LC-MS/MS analysis; type: ADME, organism-based; details: in vivo, read-out: Vdss
[20] = system: Mus musculus; assay: In vivo inhibition of ERK phosphorylation in human A-375 cells xenografted CD1 mouse at 30 mg/kg bid via oral gavage measured after 8 hrs by ELISA method; type: functional, organism-based
[21] = Oral bioavailability in CD1 mouse at 10 mg/kg measured up to 24 hrs by LC-MS/MS analysis; type: ADME, organism-based; details: in vivo
[22] = system: Mus musculus; assay: In vivo inhibition of MEK phosphorylation in human A-375 cells xenografted CD1 mouse at 30 mg/kg bid via oral gavage measured after 8 hrs by ELISA method; type: functional, organism-based
[23] = AUC in Beagle dog at 10 mg/kg, po measured up to 24 hrs by LC-MS/MS analysis; type: ADME, organism-based, Canis lupus familiaris; design: route oral, dose 10 mg/kg, time <=24; details: in vivo
[24] = AUC in Wistar rat at 10 mg/kg, po measured up to 24 hrs by LC-MS/MS analysis; type: ADME, organism-based; design: route oral, dose 10 mg/kg, time <=24; details: in vivo
[25] = Oral bioavailability in Beagle dog at 10 mg/kg measured up to 24 hrs by LC-MS/MS analysis; type: ADME, organism-based, Canis lupus familiaris; details: in vivo
[26] = Volume of distribution at steady state in Beagle dog at 3 mg/kg, iv measured up to 24 hrs by LC-MS/MS analysis; type: ADME, organism-based, Canis lupus familiaris; details: in vivo, read-out: Vdss
[27] = system: Mus musculus; assay: In vivo inhibition of SPRY4 in human A-375 cells xenografted CD1 mouse at 30 mg/kg bid via oral gavage measured after 8 hrs by RT-PCR method; type: functional, organism-based
[28] = system: Serine/threonine-protein kinase B-raf (Homo sapiens), P15056 [V600E]; assay: Inhibition of full length human BRAF V599E mutant using LCB-FFKNIVTPRTPPP as substrate preincubated for 45 mins followed by substrate addition and measured after 90 mins; details: time 135.0 min
Serine/threonine-protein kinase B-raf (Homo sapiens), P15056 [V600E], sequence (P15056 whole entry V600E): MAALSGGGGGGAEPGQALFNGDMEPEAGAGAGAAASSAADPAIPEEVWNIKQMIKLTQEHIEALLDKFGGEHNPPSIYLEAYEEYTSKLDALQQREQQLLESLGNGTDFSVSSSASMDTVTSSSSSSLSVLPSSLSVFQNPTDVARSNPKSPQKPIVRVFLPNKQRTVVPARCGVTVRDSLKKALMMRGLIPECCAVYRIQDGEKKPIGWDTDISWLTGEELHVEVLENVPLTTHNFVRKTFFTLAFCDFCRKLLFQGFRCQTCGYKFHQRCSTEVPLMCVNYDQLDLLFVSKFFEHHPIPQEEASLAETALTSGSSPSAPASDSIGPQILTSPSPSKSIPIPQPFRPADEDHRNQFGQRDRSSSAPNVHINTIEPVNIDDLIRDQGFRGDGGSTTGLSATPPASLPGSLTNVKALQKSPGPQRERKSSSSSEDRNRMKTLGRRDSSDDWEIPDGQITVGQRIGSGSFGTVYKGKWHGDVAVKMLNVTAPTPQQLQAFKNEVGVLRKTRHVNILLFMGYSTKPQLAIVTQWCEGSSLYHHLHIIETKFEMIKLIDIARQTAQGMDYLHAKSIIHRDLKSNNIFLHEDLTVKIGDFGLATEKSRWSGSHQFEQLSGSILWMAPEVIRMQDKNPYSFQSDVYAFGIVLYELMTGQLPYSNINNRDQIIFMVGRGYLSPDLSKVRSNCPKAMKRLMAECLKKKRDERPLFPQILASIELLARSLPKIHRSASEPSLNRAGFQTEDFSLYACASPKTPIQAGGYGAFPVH

[29] = Volume of distribution at steady state in Wistar rat at 3 mg/kg, iv measured up to 24 hrs by LC-MS/MS analysis; type: ADME, organism-based; details: in vivo, read-out: Vdss
[30] = molecular target: Mitogen-activated protein kinase 1 (Homo sapiens) (UniProt P28482); assay: Inhibition of full length human ERK2 using LCB-FFKNIVTPRTPPP as substrate preincubated for 45 mins followed by substrate addition and measured after 90 mins; details: time 135.0 min
Mitogen-activated protein kinase 1 (Homo sapiens), sequence (P28482 whole entry): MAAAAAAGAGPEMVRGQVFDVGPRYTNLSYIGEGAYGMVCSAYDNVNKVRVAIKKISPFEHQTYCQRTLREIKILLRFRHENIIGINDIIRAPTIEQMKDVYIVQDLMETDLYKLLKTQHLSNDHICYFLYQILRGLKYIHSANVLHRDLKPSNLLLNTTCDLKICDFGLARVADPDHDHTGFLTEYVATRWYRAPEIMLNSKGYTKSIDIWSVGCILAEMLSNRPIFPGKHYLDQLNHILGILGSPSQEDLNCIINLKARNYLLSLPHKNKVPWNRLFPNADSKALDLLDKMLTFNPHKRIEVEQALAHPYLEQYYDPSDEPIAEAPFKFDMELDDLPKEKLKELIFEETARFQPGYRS

Row | log(permeability) [1] | solubility thermodynamic [2] [µM] | logP [4] | IC50 [5] [nM] | solubility thermodynamic [11] [µM] | SMILES | further results
1 | -4.5 | 47 (≈ 22.3 µg/mL) | 4.8 |  |  | Fc1cc2ncc3ncn(C4CCNCC4)c3c2cc1-c1ccc(Oc2ccccn2)cc1Cl | pKa [3]: 8.4
2 |  |  |  | 12100 |  | Cc1nc2cnc3cc(F)c(-c4ccc(Oc5ncccn5)cc4Cl)cc3c2n1[C@H]1CC[C@](N)(CC#N)CC1 | 
3 |  |  |  | < 500 |  | N#CCc1ccc(-n2cnc3cnc4cc(F)c(-c5ccc(Oc6ccccn6)cc5Cl)cc4c32)cc1 | EC50 [6]: 3000 nM; bioavailability [7]: 5%; clearance [8]: 8 mL/min/kg
4 | -4.2 |  | 5.3 |  |  | COc1cc(Oc2ccccn2)ccc1-c1cc2c(cc1F)ncc1ncn(C3CCN(CC#N)CC3)c12 | 
5 |  |  |  |  |  | CC(=O)N1CC[C@H](n2c(C)nc3cnc4cc(F)c(-c5ccc(Oc6ncccn6)cc5Cl)cc4c32)[C@@H](F)C1 | EC50 [6]: 64000 nM
6 |  |  | 2 | 11000 |  | Cc1nc2cnc3cc(F)c(-c4ccc(Oc5ncccn5)cc4Cl)cc3c2n1C1CCN(C(=O)CO)CC1 | EC50 [6]: 50000 nM; inhibition in vivo at 30 mg/kg [9]: 41%; bioavailability [7]: 37%; clearance [8]: 34 mL/min/kg; fraction unbound [10]: 0.05
7 | -4.7 | < 4 |  |  | 22 (≈ 12.3 µg/mL) | CC(O)c1nc2cnc3cc(F)c(-c4ccc(Oc5ccccn5)cc4Cl)cc3c2n1C1CCN(CC#N)CC1 (stereo not drawn) | 
8 | -6.9 | 31 (≈ 17.2 µg/mL) | 3.2 |  | 42 (≈ 23.3 µg/mL) | COc1cc(Oc2ncccn2)ccc1-c1cc2c(cc1F)ncc1nc(C(C)O)n(C3CCN(CC#N)CC3)c12 (stereo not drawn) | 
9 | -4.5 | < 4 | 4.9 |  | < 4 | N#CCN1CCC(n2c(CO)nc3cnc4cc(F)c(-c5ccc(Oc6ccccn6)cc5Cl)cc4c32)CC1 | 
10 |  |  | 3.2 |  |  | N#CCN1CCN(n2cnc3cnc4cc(F)c(-c5ccc(Oc6ncccn6)cc5Cl)cc4c32)CC1 | IC50 [6]: 120 nM
11 | -4.1 | < 4 | 5.1 |  | 175 (≈ 92.2 µg/mL) | Cc1nc2cnc3cc(F)c(-c4ccc(Oc5ccccn5)cc4Cl)cc3c2n1C1CCN(CC#N)CC1 | 
12 |  |  |  |  |  | N#CCc1ccc(-n2cnc3cnc4cc(F)c(-c5ccc6[nH]ccc6c5)cc4c32)cc1 | EC50 [6]: 5800 nM; IC50 [12]: 2600 nM
13 | -4.7 | < 4 |  |  | 22 (≈ 12.3 µg/mL) | CC(O)c1nc2cnc3cc(F)c(-c4ccc(Oc5ncccn5)cc4Cl)cc3c2n1C1CCN(CC#N)CC1 (stereo not drawn) | 
14 | -3.9 | < 4 | 4.6 |  | 22 (≈ 11.5 µg/mL) | COc1cc(Oc2ccccn2)ccc1-c1cc2c(cc1F)ncc1nc(C)n(C3CCN(CC#N)CC3)c12 | 
15 |  |  | 4.6 | < 500 |  | CC1(n2cnc3cnc4cc(F)c(-c5ccc(Oc6ncccn6)cc5Cl)cc4c32)CCC(CC#N)CC1 (stereo not drawn) | clearance [13]: 6 mL/min/kg
16 |  |  | 4.2 | 1500 |  | CC1(n2cnc3cnc4cc(F)c(-c5ccc(Oc6ncccn6)cc5Cl)cc4c32)CCN(CC#N)CC1 | IC50 [6]: 80 nM; clearance [13]: 35 mL/min/kg

Row | log(permeability) [1] | solubility thermodynamic [2] [µM] | logP [4] | IC50 [5] [nM] | solubility thermodynamic [11] [µM] | SMILES | further results
17 | -5.3 | 12 (≈ 6.53 µg/mL) | 3.5 |  | 6 (≈ 3.26 µg/mL) | N#CCN1CCC(n2c(CO)nc3cnc4cc(F)c(-c5ccc(Oc6ncccn6)cc5Cl)cc4c32)CC1 | 
18 |  |  | 3.2 | 5000 |  | COCC(=O)N1CC[C@H](n2c(C)nc3cnc4cc(F)c(-c5ccc(Oc6ncccn6)cc5Cl)cc4c32)[C@@H](F)C1 | 
19 | -4.4 | 67 (≈ 34.7 µg/mL) | 4.6 |  |  | OCCN1CCC(n2cnc3cnc4cc(F)c(-c5ccc(Oc6ccccn6)cc5Cl)cc4c32)CC1 | pKa [3]: 6.9
20 | -4.7 | 11 (≈ 5.81 µg/mL) | 3.3 | 1600 | 106 (≈ 56 µg/mL) | Cc1nc2cnc3cc(F)c(-c4ccc(Oc5ncccn5)cc4Cl)cc3c2n1C1CCN(CC#N)CC1 | IC50 [6]: 60 nM; bioavailability [7]: 0%; clearance [8]: 16 mL/min/kg
21 |  |  | 1.2 | 1200 |  | Cc1nc2cnc3cc(F)c(-c4ccc(Oc5ncccn5)cc4Cl)cc3c2n1[C@H]1CC[C@@](N)(CC#N)CC1 | 
22 | -4.5 |  | 3 |  |  | N#CCN1CCC(n2cnc3cnc4cc(F)c(-c5ccc(Oc6ncccn6)cc5Cl)cc4c32)CC1 | 
23 |  |  | 5.7 | 5700 |  | N#CC[C@]1(N)CC[C@@H](n2cnc3cnc4cc(F)c(-c5ccc(Oc6ncccn6)cc5Cl)cc4c32)CC1 | 
24 | -4.5 | 33 (≈ 17.3 µg/mL) | 2.3 |  | 221 (≈ 116 µg/mL) | COc1cc(Oc2ncccn2)ccc1-c1cc2c(cc1F)ncc1nc(C)n(C3CCN(CC#N)CC3)c12 | 
25 | -4.6 | < 4 | 4.4 |  | 9 (≈ 4.97 µg/mL) | COc1cc(Oc2ccccn2)ccc1-c1cc2c(cc1F)ncc1nc(C(C)O)n(C3CCN(CC#N)CC3)c12 (stereo not drawn) | 
26 |  |  | 2.6 | 2000 |  | Cc1ccnc(Oc2ccc(-c3cc4c(cc3F)ncc3nc(C)n([C@H]5CCN(C(=O)CO)C[C@@H]5F)c34)c(Cl)c2)n1 | EC50 [6]: 7000 nM
27 |  |  |  |  |  | CC(=O)Nc1cccc(-n2c(=O)n(C3CC3)c(=O)c3c(Nc4ccc(I)cc4F)n(C)c(=O)c(C)c32)c1 | T1/2 [14]: 0.417 h
28 |  |  | 1.6 | 7700 |  | Cc1nc2cnc3cc(F)c(-c4ccc(Oc5ncccn5)cc4Cl)cc3c2n1[C@H]1CCN(C(=O)CO)C[C@@H]1F | Activity [15]: Non-Toxic; EC50 [6]: 5000 nM; Activity [16]: Active; IC50 [17]: 25 nM; AUC [18]: 0.4 µM·h; Vd [19]: 2.6 L/kg; Activity [20]: Active; F [21]: 44%; T1/2 [14]: 1.62 h; Activity [22]: Active; AUC [23]: 1.4 µM·h; AUC [24]: 0.6 µM·h; F ([7]; 10 mg/kg, 24 h): 65%; F [25]: 100%; Vd [26]: 1.8 L/kg; Activity [27]: Active; inhibition [28]: inactive; Vd [29]: 2 L/kg; inhibition [30]: inactive
29 | -4.2 |  | 5.3 |  |  | N#CCN1CCC(n2cnc3cnc4cc(F)c(-c5ccc(Oc6ccccn6)cc5Cl)cc4c32)CC1 | EC50 [6]: 400 nM; pKa [3]: 4.1; IC50 [12]: 70 nM
30 | -5 | < 4 | 4.4 |  | 7 (≈ 3.77 µg/mL) | COc1cc(Oc2ccccn2)ccc1-c1cc2c(cc1F)ncc1nc(CO)n(C3CCN(CC#N)CC3)c12 | 
31 |  |  | 2 | > 20000 |  | Cc1cc(Oc2ncccn2)ccc1-c1cc2c(cc1F)ncc1nc(C)n([C@H]3CCN(C(=O)CO)C[C@@H]3F)c12 | EC50 [6]: 19000 nM
32 |  |  | 2.3 | > 20000 |  | O=C(CO)N1CC[C@H](n2cnc3cnc4cc(F)c(-c5ccc(Oc6ncccn6)cc5Cl)cc4c32)[C@@H](F)C1 | 
